Experimental data published in ChEMBL document CHEMBL4483862, “Open-source discovery of chemical leads for next-generation chemoprotective antimalarials” (2018).

Test system: Plasmodium berghei
Assay: Luciferase/luciferin-expressing antifolate-resistant parasites were used to infect a culture of HepG2 cells that were pre-incubated with compounds. Infected hepatocytes emit light due to the luciferase reaction. Assay results are presented as the percent inhibition of light emission compared to control. […]
Assay type: functional
Details: sporozoite; for IC90: read-out: LUCIFERASE INFECTION ASSAY - IC90
[1] = read-out: LUCIFERASE INFECTION ASSAY - IC50

CN(C)c1cccc(-c2cnc3sc(NCc4cccnc4)nn23)c1
IC50 [1]: > 9.42 µM
IC90: > 9.42 µM

COc1cccc(CNC(=O)Nc2ccc3nc(Cc4ccccc4)nn3c2)c1
IC50 (HEPG2TOX_HILL_SLOPE 13.6, HEPG2TOX_R_SQUARED 0.936, PBLUC_HILL_SLOPE 1.17, PBLUC_R_SQUARED 0.525, read-out: LUCIFERASE INFECTION ASSAY - IC50): 2.14 µM
IC90: > 10 µM

O=C1C=CC(=O)N1c1ccc2c(c1)OCCO2
IC50 [1]: > 14.3 µM
IC90: > 14.3 µM

COc1ccc2c(c1)CCCN2Cc1nn2c(=O)cc(C)nc2s1
IC50 [1]: > 10 µM
IC90: > 10 µM

Cn1cnc2cnc(Nc3ccc(F)c(Cl)c3)cc21
IC50 (HEPG2TOX_HILL_SLOPE 2.92, HEPG2TOX_R_SQUARED 0.693, read-out: LUCIFERASE INFECTION ASSAY - IC50): > 10 µM
IC90: > 10 µM

Cc1noc(C)c1S(=O)(=O)N1CCCN(C(=O)c2cc3c(s2)-c2ccccc2CC3)CC1
IC50 (PBLUC_HILL_SLOPE 2.04, PBLUC_R_SQUARED 0.622, read-out: LUCIFERASE INFECTION ASSAY - IC50): 4.56 µM
IC90: > 10 µM

CNc1nc2cnc(Nc3ccc(OC(F)(F)F)cc3)cc2n1-c1cccc(C(F)(F)F)c1
IC50 (PBLUC_HILL_SLOPE 7.78, PBLUC_R_SQUARED 0.568, read-out: LUCIFERASE INFECTION ASSAY - IC50): 8 µM
IC90: > 10 µM

COc1ccc(Sc2nc(N(C)C)ncc2OC)cc1
IC50 (HEPG2TOX_HILL_SLOPE 2.8, HEPG2TOX_R_SQUARED 0.967, PBLUC_HILL_SLOPE 2.43, PBLUC_R_SQUARED 0.609, read-out: LUCIFERASE INFECTION ASSAY - IC50): 6.22 µM
IC90: > 11.3 µM

CCOC(=O)c1sc(N)c(C#N)c1CSc1nnc(-c2ccncc2)n1-c1ccc(CC)cc1
IC50 [1]: > 10 µM
IC90: > 10 µM

O=C(O)C1CC=CCC1C(=O)NN=c1nc[nH]c2ccccc12 (stereo unspecified)
IC50 [1]: > 10 µM
IC90: > 10 µM

Cn1c(-c2ccccc2)nc2cnc(Nc3cccc(OC(F)(F)F)c3)cc21
IC50 (HEPG2TOX_HILL_SLOPE 2.98, HEPG2TOX_R_SQUARED 0.826, PBLUC_HILL_SLOPE 1.94, PBLUC_R_SQUARED 0.665, read-out: LUCIFERASE INFECTION ASSAY - IC50): 0.764 µM
IC90: 2.38 µM

CN1/C(=C\C(=O)COC(=O)C2Cc3ccccc3CN2C(=O)c2ccccc2)C(C)(C)c2ccccc21 (stereo unspecified)
IC50 (PBLUC_HILL_SLOPE 1.63, PBLUC_R_SQUARED 0.576, read-out: LUCIFERASE INFECTION ASSAY - IC50): 3.35 µM
IC90: > 10 µM

COc1cncc(-c2cncc(Nc3ccc(C(C)C)cc3)c2)c1
IC50 (PBLUC_HILL_SLOPE 9.07, PBLUC_R_SQUARED 0.477, read-out: LUCIFERASE INFECTION ASSAY - IC50): 4.09 µM
IC90: 5.21 µM

CCCOc1ccc(C=C(c2nc3ccccc3s2)c2nc3ccccc3s2)c(O)c1
IC50 (FFLUC_HILL_SLOPE 30.4, FFLUC_R_SQUARED 0.313, read-out: LUCIFERASE INFECTION ASSAY - IC50): > 10 µM
IC90: > 10 µM

COc1ccc(N(Cc2c(C#N)c(C)nn2-c2ccccc2)S(=O)(=O)c2ccc(C)cc2)cc1
IC50 (HEPG2TOX_HILL_SLOPE 7.62, HEPG2TOX_R_SQUARED 0.552, PBLUC_HILL_SLOPE 10, PBLUC_R_SQUARED 0.432, read-out: LUCIFERASE INFECTION ASSAY - IC50): 9.18 µM
IC90: > 10 µM

CN(C)S(=O)(=O)c1cccc(NC(=O)c2ccc(-n3cnc4ccccc43)cc2)c1
IC50 (HEPG2TOX_HILL_SLOPE 0.179, HEPG2TOX_R_SQUARED 0.448, PBLUC_HILL_SLOPE 2.55, PBLUC_R_SQUARED 0.642, read-out: LUCIFERASE INFECTION ASSAY - IC50): 2.67 µM
IC90: 6.32 µM

COc1ccccc1C1=NOC(=C2Sc3ccccc3C2=O)N1
IC50 (PBLUC_HILL_SLOPE 8.91, PBLUC_R_SQUARED 0.334, read-out: LUCIFERASE INFECTION ASSAY - IC50): 3.55 µM
IC90: 4.54 µM

Cc1nc(SCC(=O)c2ccc(N3CCCC3=O)cc2)c2c(C)c(C)sc2n1
IC50 [1]: 7.98 µM
IC90: > 10 µM

CCCC(CNC(=O)COC(=O)c1ccc2[nH]c3c(c2c1)CCCC3)c1ccc(Cl)cc1Cl (stereo unspecified)
IC50 (HEPG2TOX_HILL_SLOPE 0.187, HEPG2TOX_R_SQUARED 0.0336, read-out: LUCIFERASE INFECTION ASSAY - IC50): > 10 µM
IC90: > 10 µM

CCn1c(NC(=O)Cc2ccc(C)c(OC)c2)nc2ccccc21
IC50 (PBLUC_HILL_SLOPE 4.04, PBLUC_R_SQUARED 0.646, read-out: LUCIFERASE INFECTION ASSAY - IC50): 4.79 µM
IC90: 8.25 µM

O=C(Cc1coc2ccc3ccccc3c12)Nc1cc(Cl)ccc1N1CCOCC1
IC50 (FFLUC_HILL_SLOPE 11.6, FFLUC_R_SQUARED 0.426, read-out: LUCIFERASE INFECTION ASSAY - IC50): > 10 µM
IC90: > 10 µM

C=CCN(C(=O)c1ccccc1OCc1c(C)noc1C)c1nc2c(s1)CCCC2
IC50 [1]: > 10 µM
IC90: > 10 µM

N#CC(C#N)=C/C=C(/Sc1ccc(F)c(Cl)c1)c1ccc(Cl)cc1
IC50 (FFLUC_HILL_SLOPE 3.34, FFLUC_R_SQUARED 0.746, HEPG2TOX_HILL_SLOPE 5.06, HEPG2TOX_R_SQUARED 0.992, PBLUC_HILL_SLOPE 1.74, PBLUC_R_SQUARED 0.619, read-out: LUCIFERASE INFECTION ASSAY - IC50): 2.17 µM
IC90: 7.65 µM

O=C1C=C/C(=N\Nc2ccc3ccccc3c2)c2cccnc21
IC50 (HEPG2TOX_HILL_SLOPE 0.424, HEPG2TOX_R_SQUARED 0.848, PBLUC_HILL_SLOPE 2.17, PBLUC_R_SQUARED 0.805, read-out: LUCIFERASE INFECTION ASSAY - IC50): 0.42 µM
IC90: 1.15 µM

Cc1ccc(S(=O)(=O)N(C)c2ccc(OCc3coc(-c4cccs4)n3)cc2)cc1
IC50 [1]: > 10 µM
IC90: > 10 µM

c1ccc2c(CN3CCN(c4ncnc5sccc45)CC3)csc2c1
IC50 (HEPG2TOX_HILL_SLOPE 3.07, HEPG2TOX_R_SQUARED 0.815, PBLUC_HILL_SLOPE 3.96, PBLUC_R_SQUARED 0.666, read-out: LUCIFERASE INFECTION ASSAY - IC50): 6.85 µM
IC90: > 10 µM

CCC(=O)c1cn(S(=O)(=O)c2ccc(C)cc2)c2ccccc12
IC50 (HEPG2TOX_HILL_SLOPE 1.47, HEPG2TOX_R_SQUARED 0.948, PBLUC_HILL_SLOPE 16.3, PBLUC_R_SQUARED 0.746, read-out: LUCIFERASE INFECTION ASSAY - IC50): 2.9 µM
IC90: 3.32 µM

COc1cccc(N2C(C)=CC(=C(C#N)c3nc4ccccc4s3)C=C2C)c1
IC50 (FFLUC_HILL_SLOPE 12.5, FFLUC_R_SQUARED 0.607, HEPG2TOX_HILL_SLOPE 3.97, HEPG2TOX_R_SQUARED 0.941, PBLUC_HILL_SLOPE 8.86, PBLUC_R_SQUARED 0.0114, read-out: LUCIFERASE INFECTION ASSAY - IC50): > 10 µM
IC90: > 10 µM

CCc1cccc2c(C3=NNC(=Nc4cccc(S(=O)(=O)N(C)C)c4)SC3)c[nH]c12
IC50 (HEPG2TOX_HILL_SLOPE 2.11, HEPG2TOX_R_SQUARED 0.991, PBLUC_HILL_SLOPE 17, PBLUC_R_SQUARED 0.266, read-out: LUCIFERASE INFECTION ASSAY - IC50): 2.99 µM
IC90: 3.4 µM

Cc1cc(C)c2c(C)c(C(=O)Nc3nc4ccccc4s3)sc2n1
IC50 [1]: 0.841 µM
IC90: 1.17 µM

COC(=O)c1ccc2c(=O)nc(CSc3nnc(-c4ccccc4)c(-c4ccccc4)n3)[nH]c2c1
IC50 [1]: > 10 µM
IC90: > 10 µM

FC(F)Oc1ccccc1/C=N/n1c(-c2ccc3c(c2)OCCO3)cs/c1=N\CC1CCCO1 (stereo unspecified)
IC50 [1]: > 10 µM
IC90: > 10 µM

CS(=O)(=O)N1CCc2cc(C(=O)CSc3nc(-c4cccs4)nc4ccccc34)ccc21
IC50 [1]: > 10 µM
IC90: > 10 µM

COc1ccc(OCCN2CCN(CC(=O)Nc3nc(-c4c[nH]c5ccccc45)cs3)CC2)cc1
IC50 (FFLUC_HILL_SLOPE 11.8, FFLUC_R_SQUARED 0.598, PBLUC_HILL_SLOPE 24.3, PBLUC_R_SQUARED 0.264, read-out: LUCIFERASE INFECTION ASSAY - IC50): 9.11 µM
IC90: 9.98 µM

OCc1cccc(-c2cnc3ccc(-c4cccc(F)c4)nn23)c1
IC50 [1]: 3.42 µM
IC90: 4.21 µM

O=C(CSc1nnc(N2CCCC2)n1-c1ccccc1Cl)N1CCC(c2ccccc2)=N1
IC50 [1]: > 10 µM
IC90: > 10 µM

CC1CCN(Cc2nc(Oc3cccc4c3OC(C)(C)C4)c3c(-c4ccccc4)csc3n2)CC1
IC50 [1]: > 10 µM
IC90: > 10 µM

O=C(Nc1sc2c(c1CN1CCN(C(=O)c3ccco3)CC1)CCCC2)c1ccccc1F
IC50 [1]: > 10 µM
IC90: > 10 µM

COc1ccc(-c2csc3nc(-c4cccnc4)nc(NCCN4CCOCC4)c23)cc1OC
IC50 (PBLUC_HILL_SLOPE 9.41, PBLUC_R_SQUARED 0.036, read-out: LUCIFERASE INFECTION ASSAY - IC50): 9.3 µM
IC90: > 10 µM

CCCn1c(NC(=O)c2ccc(OCc3c(C)noc3C)c(OC)c2)nc2ccccc21
IC50 (PBLUC_HILL_SLOPE 3.7, PBLUC_R_SQUARED 0.447, read-out: LUCIFERASE INFECTION ASSAY - IC50): 6.12 µM
IC90: > 10 µM

CCOC(=O)C1=C(C)NC2=C(C(=O)C(c3c(F)cccc3Cl)CC2)C1c1ccc(Cl)cc1Cl (stereo unspecified)
IC50 (FFLUC_HILL_SLOPE 7.96, FFLUC_R_SQUARED 0.479, HEPG2TOX_HILL_SLOPE 1.9, HEPG2TOX_R_SQUARED 0.947, PBLUC_HILL_SLOPE 15.9, PBLUC_R_SQUARED 0.177, read-out: LUCIFERASE INFECTION ASSAY - IC50): 6.08 µM
IC90: > 6.49 µM

O=C(Nc1cc(Cl)cc(Cl)c1)Nc1cccnc1N1CCC(C(F)(F)F)CC1
IC50 (HEPG2TOX_HILL_SLOPE 11.8, HEPG2TOX_R_SQUARED 0.784, PBLUC_HILL_SLOPE 19.7, PBLUC_R_SQUARED 0.439, read-out: LUCIFERASE INFECTION ASSAY - IC50): 2.53 µM
IC90: 2.83 µM

CC(C)CCN(C(=O)CN1c2ccccc2CC1C)c1c(N)n(Cc2ccccc2)c(=O)[nH]c1=O (stereo unspecified)
IC50 [1]: > 10 µM
IC90: > 10 µM
